2 compounds from patent publication US6518012B1, “Method for regulating the expression of MHC antigens and CD40 by inhibitors of histone deacetylation” (Health Research, Inc., priority 1999, dated 2003) can be followed below.

This assay has as its system MHC class I. In words: Cell surface MHC class I by flow cytometry on Colon 26 and J558. It counts as cell-based, mouse. How it is done:
To determine the effect of TSA on cell surface protein expression, the J558 cell line was subjected to flow cytometric analyses as follows. Flow cytometric analyses were conducted by standard methods using cells fixed with 1.0% paraformaldehyde and analyzed on the FACScan (Becton Dickinson). Cell cycle analyses were carried out by flow cytometry with PI staining of genomic DNA. Cells were fixed and permeablized in methanol, treated with RNaseA and analyzed for DNA content by determination of FL3-area on the FACScan. The FL3-area data were analyzed with the ModFit software for determination of the percent cells in each phase of the cell cycle. In some cases, fluorescein isothiocyanate (FITC)-conjugated antibody staining was conducted prior to PI treatment and surface staining was analyzed as a function of cell cycle phase. Apoptosis was analyzed by staining with annexin-V directly conjugated with either FITC or RPE and by sub-G0 analysis of DNA staining. Expression levels without treatment are shown as shaded peaks, IFNγ treated cell expression is plotted by a thin line while the level of expression on TSA treated cells is represented by a heavy line. Isotype controls were analyzed and, in each case, fell on or below the levels shown for control cells. […] Since all cells were positive for MHC class I expression, the number under the histogram represents -fold change of expression calculated from the mean channel-shift after treatment relative to untreated cells. […] Of the 13 markers analyzed on J558 cells, only class I, II and CD40 were enhanced, while levels of several non-expressed antigens were not elicited (including CD25, B7 integrin, CD40L, H2K^k and IA^k) while other markers, which were expressed, were not altered (including CD44, CD54, CD80, CD86 and CD119) by TSA treatment. […] The separation of control and IFNγ curves in the CD40, J558 experiment depicted in FIG. 8 represents a mean channel fluorescence difference of only 1.3 and was not seen on independent replicates of the experiment. […]
(In general: A flow cytometer gives signals particle by particle.)

With `CC(/C=C/C(=O)NO)=C\[C@@H](C)C(=O)c1ccc(N(C)C)cc1` [TSA, Trichostatin A], under “Colon 26 and J558, flow cytometry”, the “MHC class I expression on cell surface” value is listed as “enhanced”. Also, the “class I expression as a function of cell cycle phase” value (J558, double staining with PI and antibody to class I) is recorded as “induced expression throughout the cell cycle”.

For “IFNγ: gamma-interferon, cytokine used as comparator at 100 U/ml”, the “MHC class I expression, response to IFNγ” value (J558, IFNγ 100 U/ml) is recorded as “unresponsive”.
